# Assay results as given in PubChem BioAssay (NCI).
#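 Growth conditions: 96-well plates. Treatment: test compound, 48 hours, 5 concentrations. Analysis: linear interpolation between bracketing concentrations; unreached endpoints set to highest concentration. Abbreviation: GI50, concentration required for 50% inhibition of growth. TGI is the concentration that stops growth completely.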 Where a SMILES comes first, the peptide text is derived from it. The star is where a group is joined. Palmitoyl = CCCCCCCCCCCCCCCC(=O)*
# Assays:
# Experiment in all cases: NCI anticancer screen, dose series, 48 h
# MDA-MB-231 breast = system: MDA-MB-231 breast
# RPMI-8226 leukemia = system: RPMI-8226 leukemia
# KM12 colon = system: KM12 colon
# OVCAR-8 ovarian = system: OVCAR-8 ovarian
# HT29 colon = system: HT29 colon
# K-562 leukemia = system: K-562 leukemia
# DU-145 prostate = system: DU-145 prostate
# HL-60(TB) leukemia = system: HL-60(TB) leukemia
# HCC-2998 colon = system: HCC-2998 colon
# SF-539 CNS = system: SF-539 CNS
# NCI-H460 lung = system: NCI-H460 lung
# HOP-92 NSCLC = system: HOP-92 NSCLC
# OVCAR-4 ovarian = system: OVCAR-4 ovarian
# HCT-116 colon = system: HCT-116 colon
# CAKI-1 renal = system: CAKI-1 renal
# BT-549 breast = system: BT-549 breast
# NCI-H226 lung = system: NCI-H226 lung
# CCRF-CEM leukemia = system: CCRF-CEM leukemia
# SNB-75 CNS = system: SNB-75 CNS
# MDA-MB-435 = system: MDA-MB-435
# SF-295 CNS = system: SF-295 CNS
# MCF7 breast = system: MCF7 breast
# OVCAR-5 ovarian = system: OVCAR-5 ovarian
# SK-MEL-2 melanoma = system: SK-MEL-2 melanoma
# SK-MEL-28 melanoma = system: SK-MEL-28 melanoma
# MALME-3M melanoma = system: MALME-3M melanoma
# SR leukemia = system: SR leukemia
# IGROV1 ovarian = system: IGROV1 ovarian
# NCI-H522 lung = system: NCI-H522 lung
# MOLT-4 leukemia = system: MOLT-4 leukemia
# A498 renal = system: A498 renal
# NCI/ADR-RES ovarian = system: NCI/ADR-RES ovarian
# HS 578T breast = system: HS 578T breast
# OVCAR-3 ovarian = system: OVCAR-3 ovarian
# HOP-62 NSCLC = system: HOP-62 NSCLC
# UACC-257 melanoma = system: UACC-257 melanoma
# EKVX NSCLC = system: EKVX NSCLC
# A549 NSCLC = system: A549 NSCLC
# UO-31 renal = system: UO-31 renal
# RXF 393 renal = system: RXF 393 renal
# T-47D breast = system: T-47D breast
# M14 melanoma = system: M14 melanoma
# TK-10 renal = system: TK-10 renal
# SK-OV-3 ovarian = system: SK-OV-3 ovarian
# SF-268 CNS = system: SF-268 CNS
# SW-620 colon = system: SW-620 colon
# SK-MEL-5 melanoma = system: SK-MEL-5 melanoma
# COLO 205 colon = system: COLO 205 colon
# SNB-19 CNS = system: SNB-19 CNS
# NCI-H23 lung = system: NCI-H23 lung
compound,measurement,setting,value
CCCCCCCCCCCCCCCC(=O)NC(CCCCN)C(=O)NCC(=O)NC(Cc1ccccc1)C(=O)N1CCCC1C(=O)NC(CO)C(=O)NC(Cc1ccc(O)cc1)C(=O)NC(CCCCN)C(=O)NC(CC(C)C)C(=O)NC(CCCN=C(N)N)C(=O)N1CCCC1C(=O)NCC(N)=O (stereo not given) (Palmitoyl-KGFPSYKLRPG-NH2; configuration not given here),GI50,MDA-MB-231 breast,17.3 µM
same,TGI,MDA-MB-231 breast,33.2 µM
same,GI50,RPMI-8226 leukemia,13.1 µM
same,TGI,RPMI-8226 leukemia,32.5 µM
same,GI50,KM12 colon,19.4 µM
same,TGI,KM12 colon,46.6 µM
same,GI50,OVCAR-8 ovarian,21.9 µM
same,TGI,OVCAR-8 ovarian,52.8 µM
same,GI50,HT29 colon,17 µM
same,TGI,HT29 colon,30.7 µM
same,GI50,K-562 leukemia,22.2 µM
same,TGI,K-562 leukemia,47.9 µM
same,GI50,DU-145 prostate,20.2 µM
same,TGI,DU-145 prostate,49.4 µM
same,GI50,HL-60(TB) leukemia,19.1 µM
same,TGI,HL-60(TB) leukemia,39.9 µM
same,GI50,HCC-2998 colon,17.1 µM
same,TGI,HCC-2998 colon,35.2 µM
same,GI50,SF-539 CNS,21.1 µM
same,TGI,SF-539 CNS,48.1 µM
same,GI50,NCI-H460 lung,19.2 µM
same,TGI,NCI-H460 lung,37.2 µM
same,GI50,HOP-92 NSCLC,19.3 µM
same,TGI,HOP-92 NSCLC,45.4 µM
same,GI50,OVCAR-4 ovarian,30.5 µM
same,TGI,OVCAR-4 ovarian,78.7 µM
same,GI50,HCT-116 colon,15.3 µM
same,TGI,HCT-116 colon,31.8 µM
same,GI50,CAKI-1 renal,16.4 µM
same,TGI,CAKI-1 renal,42.8 µM
same,GI50,BT-549 breast,24.1 µM
same,TGI,BT-549 breast,50.4 µM
same,GI50,NCI-H226 lung,20.2 µM
same,TGI,NCI-H226 lung,42.5 µM
same,GI50,CCRF-CEM leukemia,20.5 µM
same,TGI,CCRF-CEM leukemia,40.2 µM
same,GI50,SNB-75 CNS,22.7 µM
same,TGI,SNB-75 CNS,49.6 µM
same,GI50,MDA-MB-435,19 µM
same,TGI,MDA-MB-435,50.8 µM
same,GI50,SF-295 CNS,27.1 µM
same,TGI,SF-295 CNS,72.6 µM
same,GI50,MCF7 breast,21.1 µM
same,TGI,MCF7 breast,44 µM
same,GI50,OVCAR-5 ovarian,20.7 µM
same,TGI,OVCAR-5 ovarian,48.1 µM
same,GI50,SK-MEL-2 melanoma,43.5 µM
same,TGI,SK-MEL-2 melanoma,> 100 µM
same,GI50,SK-MEL-28 melanoma,28.6 µM
same,TGI,SK-MEL-28 melanoma,68.2 µM
same,GI50,MALME-3M melanoma,> 100 µM
same,TGI,MALME-3M melanoma,> 100 µM
same,GI50,SR leukemia,17.7 µM
same,TGI,SR leukemia,39.4 µM
same,GI50,IGROV1 ovarian,17.8 µM
same,TGI,IGROV1 ovarian,44.3 µM
same,GI50,NCI-H522 lung,22.1 µM
same,TGI,NCI-H522 lung,50.6 µM
same,GI50,MOLT-4 leukemia,16.5 µM
same,TGI,MOLT-4 leukemia,32.7 µM
same,GI50,A498 renal,34.2 µM
same,TGI,A498 renal,> 100 µM
same,GI50,NCI/ADR-RES ovarian,20.7 µM
same,TGI,NCI/ADR-RES ovarian,42.9 µM
same,GI50,HS 578T breast,31.2 µM
same,TGI,HS 578T breast,> 100 µM
same,GI50,OVCAR-3 ovarian,28.6 µM
same,TGI,OVCAR-3 ovarian,76.5 µM
same,GI50,HOP-62 NSCLC,24.4 µM
same,TGI,HOP-62 NSCLC,53.6 µM
same,GI50,UACC-257 melanoma,21.8 µM
same,TGI,UACC-257 melanoma,48 µM
same,GI50,EKVX NSCLC,18.8 µM
same,TGI,EKVX NSCLC,44 µM
same,GI50,A549 NSCLC,19.5 µM
same,TGI,A549 NSCLC,44.4 µM
same,GI50,UO-31 renal,20.2 µM
same,TGI,UO-31 renal,49.9 µM
same,GI50,RXF 393 renal,27.6 µM
same,TGI,RXF 393 renal,69.4 µM
same,GI50,T-47D breast,18 µM
same,TGI,T-47D breast,45.2 µM
same,GI50,M14 melanoma,18.4 µM
same,TGI,M14 melanoma,37.9 µM
same,GI50,TK-10 renal,21.9 µM
same,TGI,TK-10 renal,44.8 µM
same,GI50,SK-OV-3 ovarian,23 µM
same,TGI,SK-OV-3 ovarian,44.7 µM
same,GI50,SF-268 CNS,21.7 µM
same,TGI,SF-268 CNS,46.1 µM
same,GI50,SW-620 colon,26 µM
same,TGI,SW-620 colon,79.5 µM
same,GI50,SK-MEL-5 melanoma,27.7 µM
same,TGI,SK-MEL-5 melanoma,> 100 µM
same,GI50,COLO 205 colon,19.6 µM
same,TGI,COLO 205 colon,41.1 µM
same,GI50,SNB-19 CNS,26.6 µM
same,TGI,SNB-19 CNS,54.9 µM
same,GI50,NCI-H23 lung,23.9 µM
same,TGI,NCI-H23 lung,55.6 µM
